Laboratory results: patent publication US20220088131A1, “COMPOSITIONS AND METHODS RELATING TO C5L2” (King's College London, priority 2013, published 2022)

How the values were obtained:
human CD4+ T cells [1] = assay: Rescue of CPM inhibitor-mediated increase in IFN-γ production by CD4+ T cells; assay type: cell-based; settings: 24 h post activation, FIG. 13
Procedure: FIG. 13. Serum-purified C5adesArg can partially rescue carboxypeptidase M inhibitor (CPM)-mediated increase in IFN-γ production by CD4+ T cells. Purified human CD4+ T cells were activated with depicted immobilized antibodies in media, or in media with the addition of a CPM inhibitor with or without either serum-purified C5a or C5adesArg. IFN-γ production by cells was assessed 24 h post activation using the CBA Cytokine Bead Array ([…]). Data (±SD) are from three experiments (n=3). *, p<0.05; (student's paired t-test).
The ability of serum-purified C5adesArg to rescue carboxypeptidase M inhibitor (CPM)-mediated increase in IFN-γ production by CD4+ T cells was determined. Purified human CD4^+ T cells were activated in media, or in media with the addition of a CPM inhibitor with or without either serum-purified C5a or C5adesArg. IFN-γ production by cells was assessed 24 h post activation using the CBA Cytokine Bead Array. […] However, the increase in IFN-γ production was markedly lower when C5adesArg was present than when C5a was present and also markedly lower than in the absence of both C5a and C5adesArg. Addition of purified C5adesArg but not C5a reduced CPM inhibitor-induced increase in IFN-γ by about 25%.

human CD4+ T cells [2] = assay: Effect of carboxypeptidase M inhibition on cytokine secretion in CD4+ T cells (CBA); assay type: cell-based; settings: resting and activated CD4+ T cells, 36 hours
Procedure: FIG. 12A. Effect of carboxypeptidase M (CPM) inhibition on cytokine secretion in resting and activated CD4+ T cells. CD4+ T cells (2.5×10^5) were activated as depicted for 36 hours and supernatants assayed for Th1/2/17 cytokines using CBA. Cells were treated with either C5aR/C5L2 double receptor antagonist (dRA; 7 μM), C5aR antagonist (PMX53; 10 μM), with or without a carboxypetidase M inhibitor (CPMi) or activated in media without any addition as a first control (non-treated, NT) or with a control peptide that lacks activity towards C5a and C5L2 as a second control (Control). The effect of antagonist treatment was assessed in non-activated T cells (white bars), as well as T cells activated with 0.25 μg plate-bound anti-CD3 (light grey bars), anti-CD3/28 (dark grey bars) or anti-CD3/46 (black bars). Data represent n=4 with standard error of the mean indicated. Bar graphs showing effect of CPMi on secretion of IL-17, IFN-γ, and TNFα by resting and activated CD4+ T cells. FIG. 12B. […]
CD4^+ T cells and CD14^+ monocytes were cultured in medium (RPMI-1640 medium (Sigma-Alich, Suffolk, UK), supplemented with 1% GlutaMAX, 1% penicillin/streptomycin (both Life Technologies, Paisley, UK) and 10% FBS (HyClone Laboratories, Logan, Utah). In the case of T cells media was supplemented with 25 U/ml IL-2 (Sigma-Aldrich; or with concentrations indicated in figure legends). CD4^+ T cells (2.5×10^5) were cultured alone or together with plate-bound anti-CD3 (OKT3, Biolegend, San Diego, Calif.), anti-CD3 and anti-CD28 (CD28.2, BD Pharmingen, San Jose, Calif.) or anti-CD3 and anti-CD46 (TRA-2-10, provided by John Atkinson, Washington University, St Louis, Mo.) all immobilised onto 48-well plates at concentrations of 2 μg/ml PBS overnight at 4° C. […] Cells were cultured at 37° C. and 5% CO2 and cytokine secetion assessed at 12, 24 or 36 h post activation.
The Th1/Th2/Th17 Cytometric Bead Array (BD Bioscience) was used to quantify cytokine production by CD4^+ T cells and monocytes following 12 or 36 h culture under distinct activation conditions. […]

CD14+ monocytes = assay: Pro-inflammatory cytokine release by monocytes (CBA); assay type: cell-based, human; settings: resting and Flagellin-stimulated monocytes; 36 hours; dRA 7 μM, PMX53 10 μM; FIG. 9
Procedure: FIG. 9. C5L2 blockade induces pro-inflammatory cytokine release by human monocytes. CD14+ monocytes (2.5×10^5) were cultured for 36 hours and supernatants assayed for cytokines using CBA. Monocytes were treated with either C5aR/C5L2 double receptor antagonist (dRA; 7 μM), C5aR antagonist (PMX53; 10 μM) or control (non-treated). The effect of antagonist treatment was assessed on non-activated monocytes (white bars) as well as monocytes activated with 1 μg/ml of either Flagellin (light grey bars) or 100 ng/ml LPS (dark grey bars). Data represent n=4 experiments with SEM indicated. Statistical testing was not conducted as insufficient experimental repeats were performed to assume normal distribution. Asterisk denotes that the median value was 10,400 pg/ml.
Human blood was obtained from healthy volunteers following ethical guidelines set by Kings College London (KCL) ethics committee (REC: 09/H0804/72). PBMCs were isolated by density centrifugation (Ficoll-Paque PLUS; GE healthcare, Uppsala, Sweden). […]
The Th1/Th2/Th17 Cytometric Bead Array (BD Bioscience) was used to quantify cytokine production by CD4^+ T cells and monocytes following 12 or 36 h culture under distinct activation conditions. […] IL-1β amounts secreted into the cell media were measured by ELISA, according to the manufacturer's protocol (R&D Systems, Abingdon, UK).

human CD4+ T cells [3] = assay: Cytokine secretion by CD4+ T cells with C5aR or C5aR/C5L2 blockade (Cytometric Bead Array); assay type: cell-based
Description: Human blood was obtained from healthy volunteers following ethical guidelines set by Kings College London (KCL) ethics committee (REC: 09/H0804/72). PBMCs were isolated by density centrifugation (Ficoll-Paque PLUS; GE healthcare, Uppsala, Sweden). Cell subsets were isolated by magnetic separation following manufacturer's instructions (Miltenyi Biotec, Auburn, Calif.). Monocytes were positively selected using anti-CD14 microbeads (average purity 97%) and CD4^+ T cells were isolated from the CD14-negative fraction using anti-CD4 microbeads (average purity 98%). Alternatively, CD4^+ T cells were isolated from purified PBMCs by cell sorting after staining with antibodies to CD14 and CD4 and CD3.
CD4^+ T cells and CD14^+ monocytes were cultured in medium (RPMI-1640 medium (Sigma-Alich, Suffolk, UK), supplemented with 1% GlutaMAX, 1% penicillin/streptomycin (both Life Technologies, Paisley, UK) and 10% FBS (HyClone Laboratories, Logan, Utah). In the case of T cells media was supplemented with 25 U/ml IL-2 (Sigma-Aldrich; or with concentrations indicated in figure legends). CD4^+ T cells (2.5×10^5) were cultured alone or together with plate-bound anti-CD3 (OKT3, Biolegend, San Diego, Calif.), anti-CD3 and anti-CD28 (CD28.2, BD Pharmingen, San Jose, Calif.) or anti-CD3 and anti-CD46 (TRA-2-10, provided by John Atkinson, Washington University, St Louis, Mo.) all immobilised onto 48-well plates at concentrations of 2 μg/ml PBS overnight at 4° C. Monocytes (2.5×10^5) were cultured either alone or in the presence of LPS or Flagellin (1 μg/ml). […] Cells were cultured at 37° C. and 5% CO2 and cytokine secetion assessed at 12, 24 or 36 h post activation.
The Th1/Th2/Th17 Cytometric Bead Array (BD Bioscience) was used to quantify cytokine production by CD4^+ T cells and monocytes following 12 or 36 h culture under distinct activation conditions. Samples were processed following manufacturer's instructions and acquired using BD FACScan. IL-1β amounts secreted into the cell media were measured by ELISA, according to the manufacturer's protocol (R&D Systems, Abingdon, UK).

[4] = activated CD4+ T cells, dRA 7 μM, PMX53 10 μM, FIG. 6

CPMi: carboxypetidase (CP) A and B inhibitor, which also effectively inhibits CPM (Sigma CO279; 25 nM) (QQHADPICNKPCKTHDDCSGAWFCQACWNSARTCGPYVG)
IFN-γ production (human CD4+ T cells [1]; all activation conditions): increased IFN-γ production | effect on IFN-γ secretion (human CD4+ T cells [2]; FIG. 12A): may also be present | secretion of IL-17 (human CD4+ T cells [2]; control cells, untreated cells and with C5aR antagonist, FIG. 12A): increased secretion | secretion of IL-6 (human CD4+ T cells [2]; control cells, untreated cells and with C5aR antagonist, FIG. 12B): increased secretion

PMX53 [reference compound]
secretion of IL-6 (CD14+ monocytes): no effect | secretion of IFN-γ (human CD4+ T cells [3]; [4]): no effect | secretion of IL-17 (human CD4+ T cells [3]; [4]): no effect | secretion of IL-6 (human CD4+ T cells [3]; resting and activated CD4+ T cells, FIG. 7A): no effect

B1: C5adesArg: serum-purified C5a lacking the C-terminal Arg; naturally occurring agonist of C5L2 (protein)
chain: TLQKKIEEIAAKYKHSVVKKCCYDGACVNNDETCEQRAARISLGPRCIKAFTECCVVASQLRANISHKDMQLG
reduction of CPM inhibitor-induced increase in IFN-γ (human CD4+ T cells [1]; serum-purified protein added with CPM inhibitor): about 25%
